Assay results reported in ChEMBL document CHEMBL3045911, “Control of Contarinia nasturtii Keiffer (Diptera: Cecidomyiidea) by foliar sprays of acetamiprid on cauliflower transplants” (2007).
The source made the active and inactive calls. No cut-off for these calls is given here.

Tests used:
[1] = test system: Contarinia nasturtii; assay: Pesticidal activity against Contarinia nasturtii grown on […] applied as foliar spray immediately post-ovipositioning relative to control; format: functional
[2] = test system: Contarinia nasturtii; assay: Pesticidal activity against Contarinia nasturtii grown on […] assessed as larvae survival applied as foliar spray 8 days post-ovipositioning relative to control; format: functional
[3] = test system: Contarinia nasturtii; assay: Pesticidal activity against Contarinia nasturtii grown on three-leaf stage cauliflower seedling at 34 g a.i./ha applied as foliar spray 8 days post-ovipositioning measured after 10 days; format: functional
[4] = test system: Contarinia nasturtii; assay: Pesticidal activity against Contarinia nasturtii grown on three-leaf stage cauliflower seedling at 34 g a.i./ha applied as foliar spray prior to oviposition measured after 7 days; format: functional
[5] = test system: Contarinia nasturtii; assay: Pesticidal activity against Contarinia nasturtii grown on three-leaf stage cauliflower seedling assessed as insect egg hatching at 34 g a.i./ha applied as foliar spray 8 days post-ovipositioning measured after 10 days (reference value: 100%); format: functional
[6] = test system: Contarinia nasturtii; assay: Pesticidal activity against Contarinia nasturtii grown on three-leaf stage cauliflower seedling assessed as mortality of insect adult at 34 g a.i./ha applied as foliar spray prior to oviposition measured after 24 hr relative to control; format: functional
[7] = test system: Contarinia nasturtii; assay: Pesticidal activity against Contarinia nasturtii grown on three-leaf stage cauliflower seedling at 34 g a.i./ha applied as foliar spray immediately post-ovipositioning measured after 7 days; format: functional
[8] = test system: Contarinia nasturtii; assay: Pesticidal activity against Contarinia nasturtii grown on three-leaf stage cauliflower seedling assessed as insect egg hatching at 34 g a.i./ha applied as foliar spray 4 days post-ovipositioning measured after 7 days (reference value: 99.73 +/- 0.27%); format: functional
[9] = test system: Contarinia nasturtii; assay: Pesticidal activity against Contarinia nasturtii grown on three-leaf stage cauliflower seedling assessed as decrease in larval feeding time at 34 g a.i./ha applied as foliar spray 8 days post-ovipositioning measured as emergence of adult insect in the soil 7 days after cutting of seedling; format: functional, organism-based
[10] = test system: Contarinia nasturtii; assay: Pesticidal activity against Contarinia nasturtii grown on three-leaf stage cauliflower seedling assessed as mortality of insect adult at 34 g a.i./ha applied as foliar spray prior to oviposition measured after 48 hr relative to control; format: functional
[11] = test system: Contarinia nasturtii; assay: Pesticidal activity against Contarinia nasturtii grown on three-leaf stage cauliflower seedling assessed as insect egg death at 34 g a.i./ha applied as foliar spray immediately post-ovipositioning measured after 7 days relative to control; format: functional
[12] = test system: Contarinia nasturtii; assay: Pesticidal activity against Contarinia nasturtii grown on three-leaf stage cauliflower seedling assessed as insect egg death at 34 g a.i./ha applied as foliar spray prior to oviposition measured after 7 days; format: functional, organism-based
[13] = test system: Contarinia nasturtii; assay: Pesticidal activity against Contarinia nasturtii grown on […] assessed as larval pupation applied as foliar spray 8 days post-ovipositioning relative to control; format: functional
[14] = test system: Contarinia nasturtii; assay: Pesticidal activity against Contarinia nasturtii grown on three-leaf stage cauliflower seedling assessed as decrease in insect eggs laid per plant at 34 g a.i./ha applied as foliar spray prior to oviposition measured after 7 days relative to control; format: functional, organism-based
[15] = test system: Contarinia nasturtii; assay: Pesticidal activity against Contarinia nasturtii grown on three-leaf stage cauliflower seedling assessed as decrease in damage to seedling tips at 34 g a.i./ha applied as foliar spray 8 days post-ovipositioning measured after 10 days; format: functional, organism-based
[16] = test system: Contarinia nasturtii; assay: Pesticidal activity against Contarinia nasturtii grown on three-leaf stage cauliflower seedling assessed as decrease in insect eggs laid per plant at 34 g a.i./ha applied as foliar spray immediately post-ovipositioning measured after 7 days relative to control; format: functional, organism-based
[17] = test system: Contarinia nasturtii; assay: Pesticidal activity against Contarinia nasturtii grown on three-leaf stage cauliflower seedling assessed as decrease in insect eggs laid per plant at 34 g a.i./ha applied as foliar spray 4 days post-ovipositioning measured after 7 days relative to control; format: functional, organism-based
[18] = test system: Contarinia nasturtii; assay: Pesticidal activity against Contarinia nasturtii grown on three-leaf stage cauliflower seedling assessed as insect egg hatching at 34 g a.i./ha applied as foliar spray immediately post-ovipositioning measured after 7 days (reference value: 100%); format: functional
[19] = test system: Contarinia nasturtii; assay: Pesticidal activity against Contarinia nasturtii grown on three-leaf stage cauliflower seedling at 34 g a.i./ha applied as foliar spray 4 days post-ovipositioning measured after 7 days; format: functional
[20] = test system: Contarinia nasturtii; assay: Pesticidal activity against Contarinia nasturtii grown on three-leafstage cauliflower seedling assessed as insect egg hatching at 34 g a.i./ha applied as foliar spray prior to oviposition measured after 7 days (reference value: 100%); format: functional
[21] = test system: Contarinia nasturtii; assay: Pesticidal activity against Contarinia nasturtii grown on three-leaf stage cauliflower seedling assessed as decrease in mean number of larvae at 34 g a.i./ha applied as foliar spray 8 days post-ovipositioning measured on the above ground part of seedling after 10 days; format: functional, organism-based

## C/C(=N\C#N)N(C)Cc1ccc(Cl)nc1 [ACETAMIPRID]
[1]
  Activity: 99.9%
[2]
  Activity: 30%
[3]
  Activity: 69.89%
[4]
  Activity: 99.52%
[5]
  Activity: 100%
[6]
  mortality at 34 g/ha: 84.4%
[7]
  Activity: 100%
[8]
  Activity: 100%
[9]
  Activity: Active
[10]
  mortality at 34 g/ha: 100%
[11]
  Activity: 100%
[12]
  Activity: Active
[13]
  Activity: 20%
[14]
  Activity: Active
[15]
  Activity: inactive
[16]
  Activity: inactive
[17]
  Activity: inactive
[18]
  Activity: 0%
[19]
  Activity: 99.83%
[20]
  Activity: 0.48%
[21]
  Activity: Active
